The source of these data is BindingDB's records for doi:10.7270/Q2319T8T (The Scripps Research Institute Molecular Screening Center, 2007).

Molecules are shown by their SMILES. A value given as a limit tells only on which side of the number the result lay.

Steroidogenic factor 1, sequence (Q13285 whole entry, the tested form may be a part): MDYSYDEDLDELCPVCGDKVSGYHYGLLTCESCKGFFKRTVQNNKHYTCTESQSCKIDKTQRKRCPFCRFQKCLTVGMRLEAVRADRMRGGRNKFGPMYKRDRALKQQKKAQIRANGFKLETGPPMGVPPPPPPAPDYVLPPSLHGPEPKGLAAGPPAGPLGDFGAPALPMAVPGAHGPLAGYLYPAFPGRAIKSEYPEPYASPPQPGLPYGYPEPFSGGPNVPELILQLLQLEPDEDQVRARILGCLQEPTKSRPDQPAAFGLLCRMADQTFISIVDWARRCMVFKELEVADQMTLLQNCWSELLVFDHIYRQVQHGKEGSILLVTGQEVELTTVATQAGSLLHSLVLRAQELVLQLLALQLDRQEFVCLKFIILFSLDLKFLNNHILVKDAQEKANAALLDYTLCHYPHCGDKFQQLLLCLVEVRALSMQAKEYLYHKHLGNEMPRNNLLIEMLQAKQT

One assay concerns the target Steroidogenic factor 1 (Homo sapiens, UniProt Q13285). The assay is described as follows: blockers of SF-1 LBD reporter transcription – cell-based, CHO-K1, Gal4-SF-1 LBD, luciferase luminescence, dose response (AID 600).
Conditions: not given
In turn, `COCCNC(=O)CSCc1nc(-c2ccc(SC)cc2)oc1C` [MLS000089367] displayed an IC50 of 0.595 µM.

Compound `COC(=O)C1C(=CN2CCCc3ccccc32)NC(=O)NC1c1ccc(F)cc1` (centres undefined) [6-(3,4-dihydro-2H-quinolin-1-ylmethyl)-4-(4-fluorophenyl)-2-keto-3,4-dihydro-1H-pyrimidine-5-carboxylic acid methyl ester] showed an IC50 of 5.34 µM.

For the compound `Clc1ccc(-n2ncc3c(N4CCCC4)ncnc32)cc1` [1-(4-chlorophenyl)-4-(1-pyrrolidinyl)pyrazolo[3,4-d]pyrimidine], 3.17 µM corresponded to half-maximal inhibition (IC50).

Regarding `Clc1cccc(-c2nc(-c3ccccn3)no2)c1` [2-[5-(3-Chloro-phenyl)-[1,2,4]oxadiazol-3-yl]-pyridine], the IC50 is above 3.67 µM.

`CCc1ccc(-c2cn3nc(C)c(C)nc3n2)cc1` [6-(4-ethylphenyl)-2,3-dimethyl-imidazo[1,2-b][1,2,4]triazine]: the midpoint of inhibition, the IC50, lay at 3.21 µM.

Turning to `Nc1cccc(-c2nc3ccc(N)cc3s2)c1` [2-(3-Amino-phenyl)-benzothiazol-6-ylamine], the IC50 was above 3.67 µM.

Consider `O=C(CSc1nnnn1-c1ccccc1)Nc1nsc(-c2ccc(Cl)cc2)n1` [MLS000085595], for which the IC50 was found to be 4.9 µM.

Consider `O=C1c2ccccc2C(=O)C1c1ccc2ccccc2n1`, for which the IC50 was 6.72 µM.

`Cc1cc(-n2c(C)cc(C(=O)CSc3ncnc4ccccc34)c2C)no1` [1-[2,5-dimethyl-1-(5-methyl-1,2-oxazol-3-yl)pyrrol-3-yl]-2-quinazolin-4-ylsulfanyl-ethanone] gave an IC50 of 9.13 µM.

For the compound `c1cncc(-c2nnc(SCc3nc4ccccc4[nH]3)o2)c1` [MLS000062679], the IC50 is above 99 µM.

In turn, `O=C(NCCCN1CCOCC1)c1csc2c1CCCC2` [MLS000093382] yielded an IC50 above 99 µM.

`CN=c1scc(C)n1N=Cc1ccc(O)cc1O` [(4E)-4-[[(4-methyl-2-methylimino-1,3-thiazol-3-yl)amino]methylidene]-3-oxidanyl-cyclohexa-2,5-dien-1-one] displayed an IC50 of 15.2 µM.

For the compound `O=S(=O)(Nc1cccc2ncccc12)c1cccs1` [MLS000057468], the IC50 was determined as 5.27 µM.

`Clc1ccc(-n2ncc3c(N4CCCCCC4)ncnc32)cc1` [4-(1-azepanyl)-1-(4-chlorophenyl)pyrazolo[3,4-d]pyrimidine]: the IC50 was determined as 3.19 µM.

Turning to `CC(C)(C)c1ccc(-c2cc(N)[nH]n2)cc1` [SMR000095263], the IC50 amounted to 5.25 µM.

`c1ccc(-c2nc(NCc3ccco3)c3ccccc3n2)nc1` [2-furfuryl-[2-(2-pyridyl)quinazolin-4-yl]amine] registered a half-maximal inhibitory concentration (IC50) of 6.79 µM.

On to `CC(=O)c1ccc(N2CCN(c3ccc(C(F)(F)F)cn3)CC2)cc1` [1-[4-[4-[5-(trifluoromethyl)-2-pyridinyl]-1-piperazinyl]phenyl]ethanone], for which the IC50 was above 33 µM.

`Cc1nc2nc(-c3ccccc3)cn2nc1C` [2,3-dimethyl-6-phenyl-imidazo[1,2-b][1,2,4]triazine]: the IC50 is above 11 µM.

Turning to `COc1cccc2sc(Nc3nc(-c4ccccn4)cs3)nc12` [(4-methoxy-1,3-benzothiazol-2-yl)-[4-(2-pyridyl)thiazol-2-yl]amine], the IC50 stood at 4.48 µM.

On to `CCCOc1ccc(-c2nnc(-c3ccco3)o2)cc1` [2-(2-furanyl)-5-(4-propoxyphenyl)-1,3,4-oxadiazole], for which the IC50 is above 3.67 µM.

In turn, `CCCC(=O)N1CCN(c2ccc(NC(=O)c3cc4ccccc4o3)cc2Cl)CC1` [MLS000096729] yielded an IC50 of 8.79 µM.

For `O=C(Nc1nc2ccccc2[nH]1)c1ccccc1F` [N-1,3-dihydro-2H-benzimidazol-2-ylidene-2-fluorobenzamide], inhibition was half-maximal at 1.55 µM (IC50).

The same assay, now with this note: inactive by the depositor's call.
For `Cc1ccc(-c2cn3nc(C)c(C)nc3n2)cc1` [2,3-dimethyl-6-(4-methylphenyl)imidazo[1,2-b][1,2,4]triazine], the midpoint of inhibition, the IC50, lay at 20 µM.

As for `Cc1cc(N2CCN(c3nc4ccccc4s3)CC2)n2ncnc2n1` [2-[4-(5-methyl-[1,2,4]triazolo[1,5-a]pyrimidin-7-yl)-1-piperazinyl]-1,3-benzothiazole], the IC50 was 22.9 µM.
